Results from paper PMC6117091, “The C. difficile clnRAB operon initiates adaptations to the host environment in response to LL-37” (PLoS Pathogens, 2018).

Tested on: TcdA in C. difficile clnR and clnAB mutants
Experiment: TcdA western blot
Conditions: 2 μg/ml LL-37, TY medium, 24 h, 37°C

Compound: CC[C@H](C)[C@H](NC(=O)[C@H](CCCCN)NC(=O)[C@H](CCC(=O)O)NC(=O)[C@H](CCCCN)NC(=O)[C@H](CO)NC(=O)[C@H](CCCCN)NC(=O)[C@H](CCCNC(=N)N)NC(=O)[C@H](Cc1ccccc1)NC(=O)[C@H](Cc1ccccc1)NC(=O)[C@H](CC(=O)O)NC(=O)CNC(=O)[C@H](CC(C)C)NC(=O)[C@@H](N)CC(C)C)C(=O)NCC(=O)N[C@@H](CCCCN)C(=O)N[C@@H](CCC(=O)O)C(=O)N[C@@H](Cc1ccccc1)C(=O)N[C@@H](CCCCN)C(=O)N[C@@H](CCCNC(=N)N)C(=O)N[C@H](C(=O)N[C@H](C(=O)N[C@@H](CCC(N)=O)C(=O)N[C@@H](CCCNC(=N)N)C(=O)N[C@H](C(=O)N[C@@H](CCCCN)C(=O)N[C@@H](CC(=O)O)C(=O)N[C@@H](Cc1ccccc1)C(=O)N[C@@H](CC(C)C)C(=O)N[C@@H](CCCNC(=N)N)C(=O)N[C@@H](CC(N)=O)C(=O)N[C@@H](CC(C)C)C(=O)N[C@H](C(=O)N1CCC[C@H]1C(=O)N[C@@H](CCCNC(=N)N)C(=O)N[C@H](C(=O)N[C@@H](CCC(=O)O)C(=O)N[C@@H](CO)C(=O)O)[C@@H](C)O)C(C)C)[C@@H](C)CC)C(C)C)[C@@H](C)CC [LL-37]
- TcdA levels (in words): TcdA levels did not change
